Results from ChEMBL document CHEMBL1131418, “Antiviral oligo- and polyribonucleotides containing selected triazolo[2,3-a]purines” (J Med Chem, 1998).

Assays:
[1] = Therapeutic index for anti-HIV activity against HIV-IIIB in CEM-SS cells; type: cell-based
MRC5 [2] = assay: Cytotoxic dose for anti-HCMV activity against AD-169 strain in MRC-5 cells; type: functional; settings: Homo sapiens, read-out: CD50 (the source's name)
MRC5 [3] = assay: Inhibitory concentration for anti-HCMV activity against AD-169 strain in MRC-5 cells; type: functional, cell-based; settings: Homo sapiens
[4] = Therapeutic index for anti-HCMV activity against AD-169 strain in MRC-5 cells; type: cell-based; settings: human, mrc5

Row | Compound | TI [1] | CC50 (MRC5 [2]) [µM] | IC50 (MRC5 [3]) [µM] | TI [4]
1 | CCN(CC)C(=S)[S][Na] [DITIOCARB SODIUM] | > 67 | – | – | –
2 | Nc1nc(O)c2ncn(COC(CO)CO)c2n1 [GANCICLOVIR] | – | > 125 | 6.3 | > 20
